Data as given in ChEMBL document CHEMBL4834434, “Discovery of Novel and Potent N-Methyl-d-aspartate Receptor Positive Allosteric Modulators with Antidepressant-like Activity in Rodent Models” (J Med Chem, 2021).
Calls of active or inactive are those of the source. The rule behind the calls is not given here.

Legend:
[1] = Drug concentration in ICR mouse plasma at 10 mg/kg, po measured at 0.5 hrs by LC-MS/MS analysis; type: ADME, organism-based
[2] = target: 5-hydroxytryptamine receptor 1B (Homo sapiens) (UniProt P28222); assay: Displacement of [3H]-GR125743 from 5HT1BR (unknown origin) expressed in CHO cells; type: cell-based
Sequence of 5-hydroxytryptamine receptor 1B (Homo sapiens) (P28222 whole entry): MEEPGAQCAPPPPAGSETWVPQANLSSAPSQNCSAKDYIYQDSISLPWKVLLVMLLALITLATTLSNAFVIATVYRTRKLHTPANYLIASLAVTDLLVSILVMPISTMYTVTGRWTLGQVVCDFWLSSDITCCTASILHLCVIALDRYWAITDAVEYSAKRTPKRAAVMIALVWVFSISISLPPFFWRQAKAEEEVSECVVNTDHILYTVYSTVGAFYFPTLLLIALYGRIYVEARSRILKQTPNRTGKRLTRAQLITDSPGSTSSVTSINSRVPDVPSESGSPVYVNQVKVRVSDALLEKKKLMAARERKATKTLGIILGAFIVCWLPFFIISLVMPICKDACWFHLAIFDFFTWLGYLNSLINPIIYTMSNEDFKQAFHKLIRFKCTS

[3] = AUC (0 to t) in Sprague-Dawley rat at 3 mg/kg, iv measured up to 1280 mins by HPLC-MS/MS analysis; type: ADME, organism-based; set-up: route intravenous, dose 3 mg/kg, time <=1280; settings: in vivo
[4] = target: D(2) dopamine receptor (Homo sapiens) (UniProt P14416); assay: Displacement of [3H]-methylspiperone from human dopamine D2 receptor expressed in CHO cells incubated for 30 mins by liquid scintillation counting analysis; type: cell-based
Sequence of D(2) dopamine receptor (Homo sapiens) (P14416 whole entry): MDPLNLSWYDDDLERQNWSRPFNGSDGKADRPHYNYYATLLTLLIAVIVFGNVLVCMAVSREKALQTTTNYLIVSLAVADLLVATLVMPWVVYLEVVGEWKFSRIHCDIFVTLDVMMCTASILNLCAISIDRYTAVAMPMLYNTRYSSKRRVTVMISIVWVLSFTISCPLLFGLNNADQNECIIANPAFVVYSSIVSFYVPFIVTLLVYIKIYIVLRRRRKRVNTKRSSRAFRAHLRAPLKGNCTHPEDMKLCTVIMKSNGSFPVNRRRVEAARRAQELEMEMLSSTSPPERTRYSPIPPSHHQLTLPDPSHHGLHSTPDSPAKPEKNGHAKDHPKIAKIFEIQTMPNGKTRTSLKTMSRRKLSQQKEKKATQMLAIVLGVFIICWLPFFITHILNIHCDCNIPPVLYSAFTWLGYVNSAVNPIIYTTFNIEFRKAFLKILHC

hERG (KCNH2) [5] = target: T1, hERG (KCNH2) (Homo sapiens, UniProt Q12809); assay: Inhibition of human ERG expressed in CHO cells at 100 uM with holding potential at -80 to -60 mV for 500s followed by raise in potential at +30 mV for 2 sec and subsequent repolarization to -60 mV for 2 sec by whole-cell patch clamp method relative to control; type: cell-based; settings: CHO cells expressing human ERG
T1 sequence (Q12809 whole entry): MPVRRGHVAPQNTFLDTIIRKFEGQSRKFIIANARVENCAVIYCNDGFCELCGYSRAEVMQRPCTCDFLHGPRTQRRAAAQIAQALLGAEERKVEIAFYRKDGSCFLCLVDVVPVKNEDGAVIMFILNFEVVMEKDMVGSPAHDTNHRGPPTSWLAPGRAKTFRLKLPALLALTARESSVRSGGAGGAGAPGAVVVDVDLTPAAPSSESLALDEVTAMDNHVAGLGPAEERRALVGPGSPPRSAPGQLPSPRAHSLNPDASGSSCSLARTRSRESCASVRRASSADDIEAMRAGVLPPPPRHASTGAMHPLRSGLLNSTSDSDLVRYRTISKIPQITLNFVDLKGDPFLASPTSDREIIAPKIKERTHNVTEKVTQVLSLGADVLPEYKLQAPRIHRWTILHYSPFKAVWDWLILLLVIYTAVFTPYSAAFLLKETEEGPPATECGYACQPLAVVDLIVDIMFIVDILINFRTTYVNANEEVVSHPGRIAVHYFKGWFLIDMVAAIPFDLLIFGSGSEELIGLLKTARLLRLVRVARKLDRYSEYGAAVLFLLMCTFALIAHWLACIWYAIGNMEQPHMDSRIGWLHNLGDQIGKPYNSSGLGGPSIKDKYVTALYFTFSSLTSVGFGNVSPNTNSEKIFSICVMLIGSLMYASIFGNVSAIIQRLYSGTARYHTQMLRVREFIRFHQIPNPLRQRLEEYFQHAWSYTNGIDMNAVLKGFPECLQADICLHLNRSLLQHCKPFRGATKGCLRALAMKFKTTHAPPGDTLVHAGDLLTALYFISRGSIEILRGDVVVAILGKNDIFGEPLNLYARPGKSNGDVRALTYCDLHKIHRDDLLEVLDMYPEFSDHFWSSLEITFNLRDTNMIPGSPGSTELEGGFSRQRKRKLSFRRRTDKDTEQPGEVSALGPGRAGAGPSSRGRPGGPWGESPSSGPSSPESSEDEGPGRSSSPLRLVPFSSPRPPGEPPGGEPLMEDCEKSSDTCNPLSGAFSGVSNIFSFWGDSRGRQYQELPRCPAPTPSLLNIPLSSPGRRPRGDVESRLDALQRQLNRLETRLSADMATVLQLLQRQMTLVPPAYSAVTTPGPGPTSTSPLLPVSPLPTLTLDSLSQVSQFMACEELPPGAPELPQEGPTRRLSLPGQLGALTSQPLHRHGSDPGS

[6] = […] in ICR mouse assessed as decrease in body weight at 30 mg/kg, po administered for 28 days; type: organism-based; settings: in vivo, 672 h, time 28 day
[7] = Drug concentration in ICR mouse brain at 10 mg/kg, po measured at 2 hrs by LC-MS/MS analysis; type: ADME, organism-based; settings: read-out: Ct
[8] = Drug concentration in Sprague-Dawley rat brain at 3 mg/kg, iv measured at 20 mins by LC-MS/MS analysis; type: ADME, organism-based; settings: read-out: Ct
[9] = Ratio of drug concentration in brain to plasma in ICR mouse at 10 mg/kg, po measured at 2 hrs by LC-MS/MS analysis; type: ADME, organism-based; settings: read-out: BPR
[10] = […] in ICR mouse assessed as change in behaviour at 30 mg/kg, po administered for 28 days; type: organism-based; settings: in vivo, 672 h, time 28 day
[11] = Drug concentration in ICR mouse plasma at 3 mg/kg, iv measured at 0.5 hrs by LC-MS/MS analysis; type: ADME, organism-based
[12] = Cmax in Sprague-Dawley rat at 10 mg/kg, po measured up to 1280 mins by HPLC-MS/MS analysis; type: ADME, organism-based; set-up: route oral, dose 10 mg/kg, time <=1280; settings: in vivo
[13] = Half life in Sprague-Dawley rat at 3 mg/kg, iv measured up to 1280 mins by HPLC-MS/MS analysis; type: ADME, organism-based; settings: in vivo
[14] = Cytotoxicity against African green monkey Vero cells assessed as cell growth inhibition at 120 uM measured after 48 hrs by CCK8 assay relative to control; type: cell-based; settings: chlorocebus sabaeus
[15] = Volume of distribution at steady state in Sprague-Dawley rat at 3 mg/kg, iv measured up to 1280 mins by HPLC-MS/MS analysis; type: ADME, organism-based; settings: in vivo
[16] = target: 5-hydroxytryptamine receptor 6 (Homo sapiens) (UniProt P50406); assay: Displacement of [3H]-LSD from human 5HT6 incubated for 30 mins by liquid scintillation counting analysis
Sequence of 5-hydroxytryptamine receptor 6 (Homo sapiens) (P50406 whole entry): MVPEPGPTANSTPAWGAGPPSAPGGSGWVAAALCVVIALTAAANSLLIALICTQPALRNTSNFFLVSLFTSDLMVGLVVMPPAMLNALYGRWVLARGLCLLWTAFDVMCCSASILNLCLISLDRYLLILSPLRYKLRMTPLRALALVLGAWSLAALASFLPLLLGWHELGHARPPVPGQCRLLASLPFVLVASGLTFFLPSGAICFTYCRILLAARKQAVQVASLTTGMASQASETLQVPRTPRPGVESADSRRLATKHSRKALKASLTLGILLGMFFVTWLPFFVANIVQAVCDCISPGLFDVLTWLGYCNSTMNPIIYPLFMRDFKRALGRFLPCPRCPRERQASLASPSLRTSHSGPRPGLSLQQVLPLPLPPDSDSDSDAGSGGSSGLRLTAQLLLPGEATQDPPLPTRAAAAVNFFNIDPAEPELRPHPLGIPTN

[17] = Ratio of drug concentration in brain to plasma in Sprague-Dawley rat at 3 mg/kg, iv measured at 80 mins by LC-MS/MS analysis; type: ADME, organism-based; settings: read-out: BPR
[18] = […] in ICR mouse assessed as body weight gain at 30 mg/kg, po administered for 28 days; type: organism-based; settings: in vivo, 672 h, time 28 day
[19] = Drug concentration in ICR mouse plasma at 10 mg/kg, po measured at 2 hrs by LC-MS/MS analysis; type: ADME, organism-based
[20] = Tmax in ICR mouse at 10 mg/kg, po measured up to 24 hrs by HPLC-MS/MS analysis; type: ADME, organism-based; settings: in vivo
[21] = Effect on locomotor activity in ICR mouse assessed as hyperlocomotion at 10 mg/kg, ip measured after 90 mins; type: ADME, organism-based; settings: in vivo, 1.5 h
Mus musculus = assay: Antidepressant activity in ICR mouse assessed as decrease in immobility time at 30 mg/kg, ip measured after 26 mins by forced swim test; type: functional, organism-based
hERG (KCNH2) [22] = target: T1, hERG (KCNH2); assay: Inhibition of human ERG expressed in CHO cells at 30 uM with holding potential at -80 to -60 mV for 500s followed by raise in potential at +30 mV for 2 sec and subsequent repolarization to -60 mV for 2 sec by whole-cell patch clamp method relative to control; type: cell-based; settings: CHO cells expressing human ERG
[23] = Oral bioavailability in Sprague-Dawley rat at 10 mg/kg measured up to 1280 mins by HPLC-MS/MS analysis; type: ADME, organism-based; settings: in vivo
[24] = Cmax in Sprague-Dawley rat at 3 mg/kg, iv measured up to 1280 mins by HPLC-MS/MS analysis; type: ADME, organism-based; set-up: route intravenous, dose 3 mg/kg, time <=1280; settings: in vivo
[25] = target: 5-hydroxytryptamine receptor 1A (Homo sapiens) (UniProt P08908); assay: Displacement of [3H]-8-OH-DPAT from human 5HT1AR expressed in CHO cells incubated for 30 mins by liquid scintillation counting analysis; type: cell-based
Sequence of 5-hydroxytryptamine receptor 1A (Homo sapiens) (P08908 whole entry): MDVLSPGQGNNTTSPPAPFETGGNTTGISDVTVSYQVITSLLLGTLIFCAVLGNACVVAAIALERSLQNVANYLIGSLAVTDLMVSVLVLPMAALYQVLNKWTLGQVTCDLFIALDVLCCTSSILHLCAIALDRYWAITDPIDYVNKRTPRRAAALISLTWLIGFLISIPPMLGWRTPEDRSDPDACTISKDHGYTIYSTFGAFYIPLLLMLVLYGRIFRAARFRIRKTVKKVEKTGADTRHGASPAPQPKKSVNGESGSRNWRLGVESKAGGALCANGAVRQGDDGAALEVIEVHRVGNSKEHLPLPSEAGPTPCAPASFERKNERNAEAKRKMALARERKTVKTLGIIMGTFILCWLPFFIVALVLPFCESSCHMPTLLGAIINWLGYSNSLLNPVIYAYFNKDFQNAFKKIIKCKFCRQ

[26] = Drug concentration in ICR mouse brain at 3 mg/kg, iv measured at 0.5 hrs by LC-MS/MS analysis; type: ADME, organism-based; settings: read-out: Ct
[27] = Acute toxicity in ip dosed ICR mouse assessed as lethal dose measured after 24 hrs; type: organism-based; settings: in vivo
[28] = AUC (0 to t) in ICR mouse at 10 mg/kg, po measured up to 24 hrs by HPLC-MS/MS analysis; type: ADME, organism-based; set-up: route oral, dose 10 mg/kg, time <=24; settings: in vivo
[29] = Volume of distribution at steady state in ICR mouse at 3 mg/kg, iv measured up to 24 hrs by HPLC-MS/MS analysis; type: ADME, organism-based; settings: in vivo, read-out: Vdss
[30] = MRT in ICR mouse at 10 mg/kg, po measured up to 24 hrs by HPLC-MS/MS analysis; type: ADME, organism-based; settings: in vivo
[31] = Cytotoxicity against mouse L929 cells assessed as cell growth inhibition at 60 uM measured after 48 hrs by CCK8 assay relative to control; type: cell-based
[32] = MRT in ICR mouse at 3 mg/kg, iv measured up to 24 hrs by HPLC-MS/MS analysis; type: ADME, organism-based; settings: in vivo
[33] = target: Sodium-dependent dopamine transporter (Rattus norvegicus) (UniProt P23977); assay: Displacement of [3H]-WIN35428 from rat striatum DAT; type: tissue-based
Sequence of Sodium-dependent dopamine transporter (Rattus norvegicus) (P23977 whole entry): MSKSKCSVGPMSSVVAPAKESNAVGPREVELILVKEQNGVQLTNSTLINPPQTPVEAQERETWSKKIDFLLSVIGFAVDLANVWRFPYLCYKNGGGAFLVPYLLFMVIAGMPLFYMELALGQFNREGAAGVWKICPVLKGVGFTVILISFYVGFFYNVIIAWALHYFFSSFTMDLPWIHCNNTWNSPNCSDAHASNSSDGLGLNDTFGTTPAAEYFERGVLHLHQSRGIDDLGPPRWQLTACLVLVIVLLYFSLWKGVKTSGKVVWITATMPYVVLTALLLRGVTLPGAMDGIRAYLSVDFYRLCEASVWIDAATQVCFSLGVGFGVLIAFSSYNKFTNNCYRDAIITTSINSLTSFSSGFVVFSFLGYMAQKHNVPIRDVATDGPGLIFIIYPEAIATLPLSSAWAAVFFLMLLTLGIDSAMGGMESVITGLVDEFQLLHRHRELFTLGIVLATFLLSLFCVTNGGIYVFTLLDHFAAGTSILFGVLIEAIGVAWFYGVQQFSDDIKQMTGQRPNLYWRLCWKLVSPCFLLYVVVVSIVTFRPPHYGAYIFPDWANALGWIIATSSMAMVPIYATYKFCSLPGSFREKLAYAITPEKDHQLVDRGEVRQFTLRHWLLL

[34] = target: Sodium-dependent serotonin transporter (Homo sapiens) (UniProt P31645); assay: Displacement of [3H]-paroxetine from SERT (unknown origin); set-up: dose or concentration left out as unconfirmed
Sequence of Sodium-dependent serotonin transporter (Homo sapiens) (P31645 whole entry, looked up): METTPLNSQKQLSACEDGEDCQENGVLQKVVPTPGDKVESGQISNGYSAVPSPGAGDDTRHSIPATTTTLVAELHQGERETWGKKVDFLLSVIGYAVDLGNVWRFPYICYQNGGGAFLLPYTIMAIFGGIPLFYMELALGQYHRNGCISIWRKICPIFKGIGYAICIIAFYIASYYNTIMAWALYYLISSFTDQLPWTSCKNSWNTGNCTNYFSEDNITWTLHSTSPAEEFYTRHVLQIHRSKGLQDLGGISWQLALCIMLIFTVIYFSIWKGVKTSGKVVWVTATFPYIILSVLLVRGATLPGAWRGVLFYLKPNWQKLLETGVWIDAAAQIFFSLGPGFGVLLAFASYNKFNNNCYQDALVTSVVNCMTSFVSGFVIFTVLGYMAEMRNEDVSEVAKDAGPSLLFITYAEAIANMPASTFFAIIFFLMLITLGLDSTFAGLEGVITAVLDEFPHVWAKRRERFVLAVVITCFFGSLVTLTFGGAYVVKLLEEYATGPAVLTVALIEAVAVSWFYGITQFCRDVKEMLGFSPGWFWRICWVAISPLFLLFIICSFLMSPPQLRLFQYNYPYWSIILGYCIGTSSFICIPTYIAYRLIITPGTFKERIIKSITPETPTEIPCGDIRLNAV

[35] = Brain to blood partition coefficient of the compound; type: physicochemical, tissue-based; settings: read-out: logBB (converted)
[36] = Drug concentration in ICR mouse plasma at 3 mg/kg, iv measured at 2 hrs; type: ADME, organism-based
Glutamate NMDA receptor = assay: Positive allosteric modulation of C57BL/6 mouse NMDA receptor assessed as potentiation of NMDA-induced current in presence of saturating glutamate by patch-clamp method; type: tissue-based, Brain
[37] = Cytotoxicity against human HEK293 cells assessed as cell growth inhibition at 60 uM measured after 48 hrs by CCK8 assay relative to control; type: cell-based
[38] = Clearance in Sprague-Dawley rat at 3 mg/kg, iv measured up to 1280 mins by HPLC-MS/MS analysis; type: ADME, organism-based; settings: in vivo
[39] = Cytotoxicity against African green monkey Vero cells assessed as cell growth inhibition at 60 uM measured after 48 hrs by CCK8 assay relative to control; type: cell-based; settings: chlorocebus sabaeus

For `Cc1cc(C)n(Cc2ccc(C(=O)Nc3ccc(Cl)c(Cl)c3)s2)n1`, the concentration at 0.5 h [1] was 760 ng/mL, the inhibition [2] was “inactive” and the AUC(0-t) at 1280 min [3] was 1820 ng·h/mL. For the same compound, the inhibition [4] was “inactive”, the inhibition at 2 s, 100 µM (hERG (KCNH2) [5]) was 45% and the Activity [6] was “Toxic”. The concentration at 2 h [7] was 174 ng/mL, the concentration at 20 min [8] was 2190 ng/g and the Kp at 2 h [9] was 0.38. For the same compound, the Activity [10] was “Non-Toxic”, the concentration at 0.5 h [11] was 389 ng/mL and the Cmax [12] was 190 ng/mL. It also gave a t1/2 [13] of 1.7 h, an inhibition at 48 h, 120 µM [14] of 22.6% and a Vdss [15] of 1.27 L/kg. The inhibition [16] was “inactive”, the Kp at 1.333 h [17] was 1.5 and the Activity [18] was “Non-Toxic”. The concentration at 2 h [19] was 451 ng/mL, the Tmax [20] was 0.5 h and the Activity [21] was “Non-Toxic”. For the same compound, the Activity (Mus musculus) was “Active”, the inhibition at 2 s, 30 µM (hERG (KCNH2) [22]) was 35.4% and the bioavailability [23] was 8.32%. For the same compound, the Cmax [24] was 2350 ng/mL, the inhibition [25] was “inactive” and the concentration at 0.5 h [26] was 160 ng/mL. It also gave an LD50 at 24 h [27] of 1500 mg/kg, an AUC(0-t) at 24 h [28] of 3050 ng·h/mL and a Vd [29] of 8.3 L/kg. For the same compound, the MRT [30] was 4.2 h, the inhibition at 48 h, 60 µM [31] was 0.5% and the MRT [32] was 4 h. The inhibition [33] was “inactive”, the inhibition [34] was “inactive” and the Kp [35] was 1.26. For the same compound, the concentration at 2 h [36] was 2940 ng/mL, the EC50 (Glutamate NMDA receptor) was 2400 nM and the inhibition at 48 h, 60 µM [37] was -5.2%. The CL [38] was 27.8 mL/min/kg and the inhibition at 48 h, 60 µM [39] was 21.9%.
